# From article PMC12020277, “Pharmacology and macrophage modulation of HPGDS inhibitor PK007 demonstrate reduced disease severity in DMD-affected muscles of the mdx mouse model” (Skeletal Muscle, 2025)
# Target: T1, hematopoietic prostaglandin D2 synthase (HPGDS) (Homo sapiens, UniProt O60760)
# T1 construct: human recombinant
# Test: fluorescence polarisation probe-displacement assay (Cayman kit #[…]), recombinant human HPGDS
# Type: binding
# T1 sequence (O60760 whole entry): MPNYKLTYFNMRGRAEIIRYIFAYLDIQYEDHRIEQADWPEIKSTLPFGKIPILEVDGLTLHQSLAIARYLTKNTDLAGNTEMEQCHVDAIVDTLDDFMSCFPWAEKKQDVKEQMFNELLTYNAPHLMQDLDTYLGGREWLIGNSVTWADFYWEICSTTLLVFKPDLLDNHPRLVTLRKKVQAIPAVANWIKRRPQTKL
substance,measurement,value
PK007,IC50,1540 ± 260 nM
